# Data reported in article PMC11843613, “Further Optimization of the mGlu1 PAM VU6024578/BI02982816: Discovery and Characterization of VU6033685” (ACS Chemical Neuroscience, 2025).
# Values joined by “and” are separate entries in the source; they are usually repeats but may differ in a detail not shown here. Equal entries are not always repeated. “Also recorded” adds a separate entry of the source. Where two headings read alike, the source gives them in different places.
# Legend:
# [1] = biological target: mouse mGlu1 (Mus musculus, UniProt P97772); experiment: mGlu1 PAM functional assay (mouse); type: cell-based
# Sequence of mouse mGlu1 (P97772 19-1199 limits assumed): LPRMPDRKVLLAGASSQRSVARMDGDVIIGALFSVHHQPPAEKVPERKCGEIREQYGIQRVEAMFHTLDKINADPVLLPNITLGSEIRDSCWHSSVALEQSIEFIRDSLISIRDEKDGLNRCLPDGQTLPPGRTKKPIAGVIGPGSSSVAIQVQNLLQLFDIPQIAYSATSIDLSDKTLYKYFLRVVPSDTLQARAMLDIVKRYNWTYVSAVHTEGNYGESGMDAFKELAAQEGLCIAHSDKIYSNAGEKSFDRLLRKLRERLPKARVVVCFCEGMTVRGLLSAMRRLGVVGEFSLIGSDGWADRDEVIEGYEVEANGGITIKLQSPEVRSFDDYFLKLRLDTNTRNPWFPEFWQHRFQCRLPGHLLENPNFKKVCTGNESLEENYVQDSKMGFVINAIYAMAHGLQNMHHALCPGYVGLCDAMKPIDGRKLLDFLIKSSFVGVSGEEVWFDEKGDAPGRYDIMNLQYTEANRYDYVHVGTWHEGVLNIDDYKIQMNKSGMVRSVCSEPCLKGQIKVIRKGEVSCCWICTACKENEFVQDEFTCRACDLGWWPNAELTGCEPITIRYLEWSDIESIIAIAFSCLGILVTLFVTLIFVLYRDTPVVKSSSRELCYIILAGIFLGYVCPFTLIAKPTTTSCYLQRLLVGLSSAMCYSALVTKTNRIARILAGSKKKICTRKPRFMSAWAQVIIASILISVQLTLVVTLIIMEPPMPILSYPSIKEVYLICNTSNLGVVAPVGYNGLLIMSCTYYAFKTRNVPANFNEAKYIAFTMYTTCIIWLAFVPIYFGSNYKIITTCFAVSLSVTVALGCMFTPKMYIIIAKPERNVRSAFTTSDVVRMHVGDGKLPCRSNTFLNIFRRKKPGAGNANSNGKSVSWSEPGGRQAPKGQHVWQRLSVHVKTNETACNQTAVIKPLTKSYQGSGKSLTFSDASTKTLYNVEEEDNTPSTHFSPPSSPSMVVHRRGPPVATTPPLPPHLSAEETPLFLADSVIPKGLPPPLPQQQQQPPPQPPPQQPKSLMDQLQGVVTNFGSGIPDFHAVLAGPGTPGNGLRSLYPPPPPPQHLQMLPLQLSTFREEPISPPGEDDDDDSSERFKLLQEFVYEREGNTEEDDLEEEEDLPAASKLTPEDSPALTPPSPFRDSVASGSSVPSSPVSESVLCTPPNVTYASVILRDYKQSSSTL
# [2] = biological target: dog mGlu1 (Canis lupus familiaris, UniProt A0A8I3NTE8); experiment: mGlu1 PAM functional assay (dog); type: cell-based
# Sequence of dog mGlu1 (A0A8I3NTE8 30-1195): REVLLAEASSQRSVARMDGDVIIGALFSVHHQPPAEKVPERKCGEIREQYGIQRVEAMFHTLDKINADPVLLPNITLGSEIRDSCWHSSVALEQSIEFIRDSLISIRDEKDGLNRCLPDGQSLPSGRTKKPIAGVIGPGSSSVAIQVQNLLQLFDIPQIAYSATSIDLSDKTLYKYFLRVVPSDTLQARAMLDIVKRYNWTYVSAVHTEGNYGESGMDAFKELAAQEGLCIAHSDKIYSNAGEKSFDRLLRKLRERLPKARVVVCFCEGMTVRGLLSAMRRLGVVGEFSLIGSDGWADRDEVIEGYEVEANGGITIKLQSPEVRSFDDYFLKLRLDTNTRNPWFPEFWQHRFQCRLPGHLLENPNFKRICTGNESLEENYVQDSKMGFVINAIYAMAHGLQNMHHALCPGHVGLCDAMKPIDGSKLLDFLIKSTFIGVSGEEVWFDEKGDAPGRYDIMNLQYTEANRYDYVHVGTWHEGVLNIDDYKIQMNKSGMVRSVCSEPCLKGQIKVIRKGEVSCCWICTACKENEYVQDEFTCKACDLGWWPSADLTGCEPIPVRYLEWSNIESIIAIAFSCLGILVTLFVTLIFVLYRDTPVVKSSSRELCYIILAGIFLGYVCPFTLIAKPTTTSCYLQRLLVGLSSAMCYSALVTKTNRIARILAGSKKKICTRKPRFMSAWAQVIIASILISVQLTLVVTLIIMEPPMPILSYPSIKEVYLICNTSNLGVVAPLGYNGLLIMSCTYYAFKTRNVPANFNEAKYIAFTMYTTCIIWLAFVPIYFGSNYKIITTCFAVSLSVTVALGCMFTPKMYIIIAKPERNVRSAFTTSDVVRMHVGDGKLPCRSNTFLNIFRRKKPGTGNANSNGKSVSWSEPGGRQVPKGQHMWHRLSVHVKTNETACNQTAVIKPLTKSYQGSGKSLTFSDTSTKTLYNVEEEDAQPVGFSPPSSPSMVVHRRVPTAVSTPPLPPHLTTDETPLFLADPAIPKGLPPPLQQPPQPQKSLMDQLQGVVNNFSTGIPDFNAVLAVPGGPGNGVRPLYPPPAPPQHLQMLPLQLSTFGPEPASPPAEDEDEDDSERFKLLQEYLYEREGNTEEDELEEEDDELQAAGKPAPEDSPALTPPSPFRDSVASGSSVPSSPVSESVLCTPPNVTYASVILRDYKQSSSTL
# [3] = biological target: h mGlu5 (Homo sapiens, UniProt P41594); experiment: mGlu5 PAM functional assay; type: cell-based
# Sequence of h mGlu5 (P41594 21-1212): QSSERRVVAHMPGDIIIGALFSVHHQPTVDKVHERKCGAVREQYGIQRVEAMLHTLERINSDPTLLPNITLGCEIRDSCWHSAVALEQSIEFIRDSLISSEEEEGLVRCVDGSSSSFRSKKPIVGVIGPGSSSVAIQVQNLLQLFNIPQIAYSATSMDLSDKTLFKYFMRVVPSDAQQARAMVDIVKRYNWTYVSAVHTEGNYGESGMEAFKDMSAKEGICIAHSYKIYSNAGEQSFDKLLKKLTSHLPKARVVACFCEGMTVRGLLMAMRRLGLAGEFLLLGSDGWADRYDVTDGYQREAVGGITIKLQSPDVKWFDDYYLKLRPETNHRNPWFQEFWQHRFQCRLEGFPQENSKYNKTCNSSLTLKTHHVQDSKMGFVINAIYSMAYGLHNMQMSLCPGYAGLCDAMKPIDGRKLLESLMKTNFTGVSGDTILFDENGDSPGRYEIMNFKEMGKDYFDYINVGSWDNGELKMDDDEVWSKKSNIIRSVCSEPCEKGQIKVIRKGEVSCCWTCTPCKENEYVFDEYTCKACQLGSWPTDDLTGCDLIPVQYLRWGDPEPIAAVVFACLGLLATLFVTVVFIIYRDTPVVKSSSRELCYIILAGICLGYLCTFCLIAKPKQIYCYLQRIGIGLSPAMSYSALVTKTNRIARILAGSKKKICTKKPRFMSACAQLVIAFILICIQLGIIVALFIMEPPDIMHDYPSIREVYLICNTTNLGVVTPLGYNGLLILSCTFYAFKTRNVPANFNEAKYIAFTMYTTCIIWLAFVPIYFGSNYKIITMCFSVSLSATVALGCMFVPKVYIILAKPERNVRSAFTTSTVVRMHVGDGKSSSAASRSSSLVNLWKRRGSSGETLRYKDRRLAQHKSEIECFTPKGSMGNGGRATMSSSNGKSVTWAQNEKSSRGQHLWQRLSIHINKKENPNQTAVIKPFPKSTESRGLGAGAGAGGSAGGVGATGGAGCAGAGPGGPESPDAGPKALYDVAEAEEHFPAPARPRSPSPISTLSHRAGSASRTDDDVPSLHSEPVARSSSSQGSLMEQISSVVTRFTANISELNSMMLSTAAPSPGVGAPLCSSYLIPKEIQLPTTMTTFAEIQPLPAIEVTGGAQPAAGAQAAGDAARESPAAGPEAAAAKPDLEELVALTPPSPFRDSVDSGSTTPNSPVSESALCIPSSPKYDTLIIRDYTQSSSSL
# [4] = Solubility in FASSGF and FASSIF; type: physicochemical
# [5] = Rat amphetamine-induced hyperlocomotion (AHL) with satellite PK; type: in vivo; details: male, Sprague-Dawley, brain (unbound); for concentration at 1.25 h: sample @ 1.25 hr
# Experimental: (§1) mode (5.0 kV spray voltage). The calibration curves were constructed in blank plasma. All data were analyzed using AB Sciex Analyst software v1.5.1.
# (§2) All animal study procedures were approved by the Institutional Animal Care and Use Committee and were conducted in accordance with the National Institutes of Health regulations of animal care covered in Principles of Laboratory Animal Care (National Institutes of Health). […]
# (§3) GraphPad Prism (version 4.03, GraphPad, La Jolla, CA).
# (§4) Amphetamine-induced hyperlocomotion (rat)
# (§5) Adult male Sprague-Dawley rats placed into the activity chambers (Med Associates). Thirty minutes after placement in the chambers, the rats were administered VU6024578 (1-10 mg/kg p.o..) or vehicle. Sixty minutes later the rats were injected with amphetamine (0.75 mg/kg s.c. 1 ml/kg) or vehicle (saline) and placed back in the activity chambers for 90 minutes. The data for the studies were analyzed by a between-group 2 way analysis of variance for compound dose and time. Each dose group was compared with the vehicle control group. The calculations were performed and graphed using GraphPad Prism (version 4.03, GraphPad, La Jolla, CA). The AUC was analyzed by a 1-way ANOVA with a Dunnett’s post hoc test. […]
# [6] = test system: amphetamine-induced hyperlocomotion in rats; experiment: as above; type: in vivo
# Experimental: as §1, §2, §3, §4, §5
# [7] = test system: MK-801 disruption of novel object recognition in rats; experiment: Rat MK-801-induced disruption of novel object recognition (NOR); type: in vivo
# Experimental: as §1, §2
# GraphPad Prism (version 4.03, GraphPad, La Jolla, CA). […]
# The animals are habituated to the novel object arenas for one day prior to testing. This is accomplished by placing the animal in the arena with no objects for 10 min and then placed back […]
# into the home cage. The arena is then cleaned with 70% ethanol in between animals. The day of the test the animals are habituated to the dosing room for 2 hours. […]
# The animals were then injected with MK-801 (0.075 mg/kg 1 ml/kg s.c.) and placed back in the homecage for 30 min. The animals are then placed into the arena with two identical familiar objects for ten minutes and then placed back into the home cage. The animals are then placed back into the arena with one of the familiar objects replaced with a novel object at 120 min after the familiar object exposure. The activity of the animals are recorded and the time spent exploring each of the objects is scored by a blinded observer. Recognition index is determined by subtracting the time spent with the […] divided by total time spent exploring. […]
# NaCl, 26 mM NaHCO3, 11mM D-glucose, 2.5 mM KCl, 2.45mM CaCl2, 1.25mM NaH2PO4 and 1.2mM MgSO4 which was supplemented with 5mM sodium ascorbate. Slices were recovered for at least 1 hour prior to recording. During recording slices were perfused with aCSF in the absence of ascorbate and presence of […] DhβE to block nAChR-mediated dopamine release. […]
# Briefly, a triangular voltage wave (-400 to +1000 mV at 300 V/sec) was applied to a fresh-cut carbon fiber electrode every 100 msec. […]
# [8] = Single IV bolus PK and tolerability in male beagle dogs; type: in vivo; details: male beagle dog, 0.5 mg/kg IV bolus
# [9] = Rat tolerability in NOR and PO PK studies
smiles,measurement,setting,value
Cc1nc(C2CC2)ccc1CNC(=O)c1cc(-n2cccn2)ccc1Cl [compound 8],EC50,[1],0.052 µM
same,mouse mGlu1 Glu Max,[1],102%
same,EC50,[2],0.093 µM
same,Emax,[2]; read-out: dog mGlu1 Glu Max,79%
same,mGlu5 Glu Max,[3],72%
same,EC50,"[3]; Table 1, unit inferred",3.76 µM
same,solubility,"[4]; FASSGF, fassgf or other biorelevant, read-out: Solubility FASSGF",0.572 mg/mL
same,solubility,"[4]; FASSIF, read-out: Solubility FASSIF",0.0236 mg/mL
same,concentration at 1.25 h,"[5]; rat PO 1 mg/kg, read-out: Brain Unbound at 1 mg/kg",0.0161 µM
same,concentration at 1.25 h,"[5]; rat PO 3 mg/kg, read-out: Brain Unbound at 3 mg/kg",0.0354 µM
same,concentration at 2.5 h,"[5]; rat PO 10 mg/kg, satellite PK, 2.5 h end of study (picture: sample @ 1.25 hr), read-out: free (unbound) brain concentration at 10 mg/kg",0.0798 µM
same,AHL efficacy compared with positive control 3,[6]; rat,comparable efficacy to the standard 3
same,minimum effective dose (MED) in AHL,[6]; rat PO,10 mg/kg
same,unbound brain concentration as fold of in vitro rat mGlu1 EC50 at efficacy in AHL,"[6]; rat, 10 mg/kg MED, 10 mg/kg",~0.74 fold and ~0.7 fold
same,reversal of amphetamine-induced hyperlocomotion,"[6]; rat, oral administration, amphetamine 0.75 mg/kg SC",dose-dependently reversed
same,free brain level as fold of rat in vitro EC50 at 30 mg/kg in NOR,[7]; rat PO 30 mg/kg,~5.2 fold
same,free brain level at 30 mg/kg in NOR,"[7]; rat PO 30 mg/kg, 0.5% Natrasol/0.015% Tween 80 in water",0.579 µM
same,reversal of MK-801 disruption of novel object recognition,"[7]; rat, PO, MK-801 0.075 mg/kg SC, one-way ANOVA p = 0.13",dose-dependently reverse the deficits induced by MK-801; also recorded: dose-dependently reversed
same,adverse events in dogs,[8],"all dogs displayed dizziness, salivation, and uncoordinated movements"
same,clearance,"[8]; plasma, read-out: CLp (dog)",0.6 L/h/kg
same,Vd,"[8]; plasma, read-out: Vss (dog)",4.6 L/kg
same,half-life,"[8]; plasma, read-out: t1/2 (dog) (converted)",6.5 h
same,adverse events at 6.2-fold rat EC50 free in brain,[9]; rat PO,"piloerection, slow movement, and reaction to stimuli"
same,duration of adverse events postdose,[9]; rat PO,~2 h
same,free brain concentration (fold rat EC50) that resulted in AEs,[9]; rat PO PK studies,6.2 fold
same,free brain concentration that resulted in AEs,[9]; rat PO PK studies,0.664 µM
